The subject of one assay is lymphocytes. As to the kind of experiment: Adhesion and transmigration of pure lymphocytes on HUVEC on a collagen matrix. Format: cell-based, human. As to conditions: for adhesion / migration: lymphocytes. As to the method: (§1) Endothelial cells from human umbilical veins (HUVEC) were marked with a red fluorescent dye (Cell Tracker Orange, 1 μl/ml, Molecular Probes, Eugene, Oreg.) and were dispersed on a collagen matrix (Collaborative Biomedical Products, Bedford, Mass.). Upon confluence of the endothelial cells, peripheral mononuclear blood cells (PBMC) (10^5 cells per 25 mm^2) marked with a green fluorescent dye (Cell Tracker Green, 1 μl/ml, Molecular Probes of Messrs. Eugene, Origon) were superimposed. Thereafter, the cells were incubated at 37° C. for twelve hours.
(§2) Adhering cells that had transmigrated into the gel were photographed with a laser-scan microscope, were converted into pixels and were evaluated by means of an “NIH image” according to Gröger et al. (J. Immunol. Method 1999; 222: 101-109).
(§3) It was feasible to determine the number of adherent cells per 0.1 mm^2 such as mentioned under “adhesion”. It was feasible to determine the number of migrated cells per 0.04 mm^3 such as mentioned under “migration”. The mean value of three times three trials was evaluated together with the standard deviation.
Since PBMC substantially consists of a mixture of lymphocytes and monocytes, pure lymphocytes instead of PBMC (as in Examples 8-10) were used in Example 11.
100 μg of NDSK-uPA or 100 μg of NDSK-II, respectively, and Aalpha or Bbeta, respectively, were added to the collagen matrix according to Example 8 comprising endothelial cells and lymphocytes.
The proceedings were in accordance with Example 11, with pure lymphocytes being used. 100 μg of NDSK-uPA or 100 μg of NDSK-II, respectively, was added to the short peptide salts derived from Aalpha Gly Pro Arg (Pro)—NH2 acetate (Aalpha derivative) or derived from Bbeta Gly His Arg Pro-OH acetate (Bbeta derivative).

In assay [1] the test system is human skin transplanted onto the backs of SCID mice, human lymphocytes injected. As to the kind of experiment: HU-SCID mouse model: inflammatory sites in transplanted human skin. In kind it is in vivo. As to conditions: 24 hours; for number of inflammatory sites: Example 3, 100 μg alone, tail vein, mean +/- SD. As for the experimental part:
Human skin was transplanted onto the backs of SCID mice, and two weeks later human lymphocytes were injected into the peritoneum. The proceedings were according to Petzelbauer et al. (J. Invest. Dermatol. 1996, 107; 576-581). Then, fifteen mice thus prepared were injected in their tail veins with the following:
Twenty-four hours later, the human skin was removed and the number of inflammatory sites, expressed in cells per 0.3 mm^2, was evaluated and the mean value was determined with a standard deviation.

For assay [2], the system named is peripheral mononuclear blood cells (PBMC). As to the kind of experiment: Adhesion and transmigration of PBMC on HUVEC on a collagen matrix. Format: cell-based, human. As to conditions: for adhesion / migration: Example 10; for adhesion / migration / migration (migrated cells) / adhesion (adherent cells): PBMC; for migration (migrated cells) / adhesion (adherent cells): Example 8, 12 h. As to the method:
as §1, §2, §3
100 μg of NDSK-II and Bbeta or Bbeta randomized were added to the collagen matrix according to Example 8 comprising the suspension of PBMC, and further proceedings were in accordance with Example 8.
100 μg of NDSK-II and Aalpha or Aalpha randomized were added to the collagen matrix according to Example 8 comprising the suspension of PBMC, and further proceedings were in accordance with Example 8.

The test system of another assay is monocytes. Nature of the assay: Adhesion and transmigration of pure monocytes on HUVEC on a collagen matrix. Format: cell-based, human. As to the method:
as §1, §2, §3
The proceedings were in accordance with Example 11, except for pure monocytes being used instead of lymphocytes. 100 μg of NDSK-uPA or 100 μg of NDSK-II, respectively, was added to peptide Aalpha, randomized Aalpha, Bbeta or randomized Bbeta.
The proceedings were in accordance with Example 12, with pure monocytes being used. […] of NDSK-uPA or 100 μg of NDSK-II, respectively, was added to the short peptide salts Aalpha Gly Pro Arg (Pro)—NH2 acetate (Aalpha derivative) or Bbeta Gly His Arg Pro-OH acetate (Bbeta derivative).

[3] abbreviates: Example 11, 100 μg of peptide + 100 μg NDSK-II.
[4] abbreviates: Example 11, 100 μg of peptide + 100 μg NDSK-uPA.
Setting [5] is: Example 11, substance alone, 100 μg.
Setting [6] is: 10 μg of peptide + 100 μg NDSK-II.
[7] abbreviates: 100 μg of peptide + 100 μg NDSK-II.
Setting [8] is: 1000 μg of peptide + 100 μg NDSK-II.
Setting [9] is: Example 12, 100 μg of peptide + 100 μg NDSK-II.
The mark [10] stands for this setting: Example 12, 100 μg of peptide + 100 μg NDSK-uPA.
[11] abbreviates: Example 12, substance alone, 100 μg.
Where [12] appears, read: Example 13, 100 μg of short peptide + 100 μg NDSK-II.
The mark [13] stands for this setting: Example 13, 100 μg of short peptide + 100 μg NDSK-uPA.
Setting [14] is: Example 13, substance alone, 100 μg.
Setting [15] is: Example 14, 100 μg of short peptide + 100 μg NDSK-II.
Setting [16] is: Example 14, 100 μg of short peptide + 100 mg NDSK-uPA.

Where no end group is shown, it is not given here.

Take “GPRVVERHQSACKDSDWPFCSDEDWNYK (cysteine pairing not given here) [amino acids 1 to 28 of the alpha chain of the fibrin]”: the “conclusion: blocking of lymphocytic adhesion and migration induced by NDSK-II and NDSK-uPA” value in the assay with lymphocytes (Example 11) was “no blocking activity”. In addition, the adhesion in the assay with lymphocytes (setting [3]) was 131 +/− 4 cells per 0.1 mm^2; in the assay with lymphocytes (setting [4]) it was 131 +/− 4 cells per 0.1 mm^2; in the assay on lymphocytes (setting [5]), 77 +/− 4 cells per 0.1 mm^2; in assay [2] (setting [6]), 69 +/− 12 cells per 0.1 mm^2; in assay [2] (setting [7]) it was 73 +/− 13 cells per 0.1 mm^2; in assay [2] (setting [8]), 70 +/− 6 cells per 0.1 mm^2. Further, the adhesion with monocytes (setting [9]) is listed as 68 +/− 10 cells per 0.1 mm^2; in the assay with monocytes (setting [10]), 62 +/− 4 cells per 0.1 mm^2; with monocytes (setting [11]), 59 +/− 6 cells per 0.1 mm^2. Also, the migration is listed as 44 +/− 4 cells per 0.04 mm^3 with lymphocytes (setting [3]); 40 +/− 3 cells per 0.04 mm^3 with lymphocytes (setting [4]); 18 +/− 1 cells per 0.04 mm^3 in the assay with lymphocytes (setting [5]); 21 +/− 4 cells per 0.04 mm^3 in assay [2] (setting [6]); 15 +/− 6 cells per 0.04 mm^3 in assay [2] (setting [7]); 13 +/− 5 cells per 0.04 mm^3 in assay [2] (setting [8]). Further, the migration with monocytes (setting [9]) is recorded as 9 +/− 6 cells per 0.04 mm^3; with monocytes (setting [10]), 8 +/− 5 cells per 0.04 mm^3; in the assay with monocytes (setting [11]) it was 5 +/− 1 cells per 0.04 mm^3. In addition, the “number of inflammatory sites” value in assay [1] is reported as 4+/−1.1 cells per 0.3 mm^2. In addition, in assay [1] (Examples 4-7, 100 μg of peptide + 100 μg of human NDSK-II), the inflammatory sites is on record as 21+/−2.2 per 0.3 mm^2. Further, the “conclusion: blocking of NDSK-II-induced PBMC adhesion/migration” value in assay [2] (Examples 9 and 10, with 100 μg NDSK-II) is recorded as “blocks the migration of PBMC only partially”.

Take “Gly His Arg Pro-OH acetate (GHRP-OH; also: acetate salt) [Bbeta derivative, short peptide salt derived from Bbeta]”: the adhesion is on record as 69 +/− 7 cells per 0.1 mm^2 with lymphocytes (setting [12]); 70 +/− 8 cells per 0.1 mm^2 in the assay with lymphocytes (setting [13]); 58 +/− 10 cells per 0.1 mm^2 in the assay with lymphocytes (setting [14]); 68 +/− 7 cells per 0.1 mm^2 with monocytes (setting [15]); 61 +/− 11 cells per 0.1 mm^2 in the assay on monocytes (setting [16]); 52 +/− 7 cells per 0.1 mm^2 in the assay on monocytes (Example 14, substance alone). For the same molecule, the migration with lymphocytes (setting [12]) is 14 +/− 5 cells per 0.04 mm^3; with lymphocytes (setting [13]), 16 +/− 3 cells per 0.04 mm^3; with lymphocytes (setting [14]) it was 12 +/− 9 cells per 0.04 mm^3; in the assay on monocytes (setting [15]) it was 8 +/− 4 cells per 0.04 mm^3; with monocytes (setting [16]) it was 8 +/− 3 cells per 0.04 mm^3; in the assay on monocytes (Example 14, substance alone), 6 +/− 1 cells per 0.04 mm^3.

Regarding “Gly Pro Arg (Pro)—NH2 acetate [Aalpha derivative]”, the adhesion in the assay with lymphocytes (setting [12]) is listed as 131 +/− 7 cells per 0.1 mm^2; with lymphocytes (setting [13]), 134 +/− 4 cells per 0.1 mm^2; with lymphocytes (setting [14]) it was 77 +/− 4 cells per 0.1 mm^2; in the assay on monocytes (setting [15]) it was 64 +/− 11 cells per 0.1 mm^2; in the assay with monocytes (setting [16]), 60 +/− 5 cells per 0.1 mm^2; in the assay with monocytes (Example 14, substance alone), 50 +/− 5 cells per 0.1 mm^2. The migration is given as 49 +/− 6 cells per 0.04 mm^3 in the assay with lymphocytes (setting [12]); 48 +/− 5 cells per 0.04 mm^3 in the assay on lymphocytes (setting [13]); 18 +/− 1 cells per 0.04 mm^3 with lymphocytes (setting [14]); 8 +/− 2 cells per 0.04 mm^3 with monocytes (setting [15]); 7 +/− 6 cells per 0.04 mm^3 with monocytes (setting [16]); 4 +/− 4 cells per 0.04 mm^3 in the assay with monocytes (Example 14, substance alone).

B1: NDSK: 63 kD fibrinogen fragment, N-terminal disulfide knot; Aalpha-chain 1-51, Bbeta-chain 1–118 and gamma-chain 1-78 (protein)
chain 1: ADSGEGDFLAEGGGVRGPRVVERHQSACKDSD
chain 2: QGVNDNEEGFFSARGHRPLDKKREEAPSLRPAPPPISGGGYRARPAKAAATQKKVERKAPDAGGCLHADPDLGVLCPTGCQLQEALLQ
chain 3: YVATRDNCCILDERFGSYCPTTCGIADFLSTYQTKVDKDLQSLEDILHQVEN
Turning to B1, the “migration (migrated cells)” value is listed as 6 +/− 3 cells per 0.04 mm^3 in assay [2] (0.1 μg/ml), 5 +/− 2 cells per 0.04 mm^3 in assay [2] (1.0 μg/ml) and 6 +/− 3 cells per 0.04 mm^3 in assay [2] (10.0 μg/ml). For the same molecule, the “adhesion (adherent cells)” value is on record as 31 +/− 18 cells per 0.1 mm^2 in assay [2] (0.1 μg/ml, mean +/- SD); 35 +/− 18 cells per 0.1 mm^2 in assay [2] (1.0 μg/ml); 36 +/− 24 cells per 0.1 mm^2 in assay [2] (10.0 μg/ml).

B2: FCB-2: negative control; 43 kD fibrinogen cleavage product, Aalpha-chain 148-208, Bbeta-chain 191-305 and gamma-chain 95-265 (protein)
chain 1: KVQHIQLLQKNVRAQLVDMKRLEVDIDIKIRSCRGSCSRALAREVDLKDYEDQQKQLEQVI
chain 2: IPTNLRVLRSILENLRSKIQKLESDVSAQMEYCRTPCTVSCNIPVVSGKECEEIIRKGGETSEMYLIQPDSSVKPYRVYCDMNTENGGWTVIQNRQDGSVDFGRKWDPYKQGFGN
chain 3: NPDESSKPNMIDAATLKSRKMLEEIMKYEASILTHDSSIRYLQEIYNSNNQKIVNLKEKVAQLEAQCQEPCKDTVQIHDITGKDCQDIANKGAKQSGLYFIKPLKANQQFLVYCEIDGSGNGWTVFQKRLDGSVDFKKNWIQYKEGFGHLSPTGTTEFWLGNEKIHLISTQ
On to B2, for which the “number of inflammatory sites” value in assay [1] is 9+/−2.1 cells per 0.3 mm^2. Besides, the “migration (migrated cells)” value in assay [2] (0.1 μg/ml) is on record as 6 +/− 4 cells per 0.04 mm^3; in assay [2] (1.0 μg/ml) it was 3 +/− 2 cells per 0.04 mm^3; in assay [2] (10.0 μg/ml), 5 +/− 4 cells per 0.04 mm^3. The “adhesion (adherent cells)” value in assay [2] (0.1 μg/ml, mean +/- SD) was 30 +/− 26 cells per 0.1 mm^2; in assay [2] (1.0 μg/ml) it was 10 +/− 10 cells per 0.1 mm^2; in assay [2] (10.0 μg/ml) it was 21 +/− 7 cells per 0.1 mm^2.

The values above are taken from US7271144B2, “Therapeutic fibrin-derived peptides and uses thereof” (Fibrex Medical Research & Development GmbH, priority 2000, dated 2007).
